Test system: Mus musculus
Assay: Protective effect against mortality induced by hypobaric hypoxia in mice by intraperitoneal (i.p.) administration.
Type: functional
Details: ip

First: N=c1sc2cc(OC(F)(F)F)ccc2n1CCCN1CCN(c2ccccc2)CC1
Second: N=c1sc2cc(OC(F)(F)F)ccc2n1CCN1CCN(c2ccccc2)CC1
The ED50 of the first is higher: over 10 mg/kg for the first, 5.5 mg/kg for the second.

Compared with `N=c1sc2cc(OC(F)(F)F)ccc2n1CCN1CCCCC1`, `CSCCn1c(=N)sc2cc(OC(F)(F)F)ccc21` is higher in ED50: under 5 mg/kg for the first, 14 mg/kg for the second.

`Nc1nc2ccc(OC(F)(F)F)cc2s1` [RILUZOLE] and `CN(C)CCn1c(=N)sc2cc(OC(F)(F)F)ccc21` are the same in ED50: 4 mg/kg for the first, 4 mg/kg for the second.

Work on `C[S+]([O-])CCn1c(=N)sc2cc(OC(F)(F)F)ccc21` (configuration not stated) yielded an ED50 of 5.5 mg/kg.

Test system: Mus musculus
Assay: Protective effect against mortality induced by hypobaric hypoxia in mice by intraperitoneal (i.p.) administration; Range 2.5-10
Type: functional
Details: ip

In order of falling ED50:
1. N=c1sc2cc(OC(F)(F)F)ccc2n1CCN1CCC(c2ccccc2)CC1  2.5 mg/kg
2. CS(=O)(=O)CCn1c(=N)sc2cc(OC(F)(F)F)ccc21  2.5 mg/kg
3. N=c1sc2cc(OC(F)(F)F)ccc2n1CCN1CC=C(c2ccccc2)CC1  2.5 mg/kg

Test system: Rattus norvegicus
Assay: Tested for the protection against glutamic acid-evoked convulsions in rats by intraperitoneal administration
Type: functional
Details: ip

`CN(C)CCn1c(=N)sc2cc(C(C)(C)C)ccc21` and `CC[S+]([O-])CCn1c(=N)sc2cc(C(C)(C)C)ccc21` (configuration not stated) cannot be ordered by ED50: over 10 mg/kg for the first, over 10 mg/kg for the second.

First: N=c1sc2cc(OC(F)(F)F)ccc2n1CCS(=O)(=O)O
Second: CS(=O)(=O)CCn1c(=N)sc2cc(OC(F)(F)F)ccc21
The ED50 of the first is higher: over 10 mg/kg for the first, 1.8 mg/kg for the second.

`Nc1nc2ccc(C(F)(F)C(F)(F)F)cc2s1` and `Nc1nc2ccc(C(F)(F)F)cc2s1` are the same in ED50: 2.5 mg/kg for the first, 2.5 mg/kg for the second.

`CC(C)c1ccc2nc(N)sc2c1` and `Nc1nc2ccc(Br)cc2s1` cannot be ordered by ED50: over 10 mg/kg for the first, over 10 mg/kg for the second.

Going from `N=c1sc2cc(OC(F)(F)F)ccc2n1CCCN1CCN(c2ccccc2)CC1` to `N=c1sc2cc(OC(F)(F)F)ccc2n1CCN1CCN(c2ccccc2)CC1`, the ED50 falls from 10 mg/kg to 3.5 mg/kg (2.9-fold).

`CN(CCc1ccccc1)CCn1c(=N)sc2cc(OC(F)(F)F)ccc21` and `CN(CCn1c(=N)sc2cc(OC(F)(F)F)ccc21)Cc1ccccc1` are within 1.5-fold of each other in ED50: 5 mg/kg for the first, 7 mg/kg for the second.

`N=c1sc2cc(OC(F)(F)F)ccc2n1CCN1CCC(c2ccccc2)CC1` and `N=c1sc2cc(OC(F)(F)F)ccc2n1CCN1CC=C(c2ccccc2)CC1` are within 1.5-fold of each other in ED50: 3 mg/kg for the first, 2.2 mg/kg for the second.

Compared with `CSCCn1/c(=N/C(C)=O)sc2cc(OC(F)(F)F)ccc21`, `CC/N=c1\sc2cc(OC(F)(F)F)ccc2n1CCSC` is lower in ED50: over 10 mg/kg for the first, 8.5 mg/kg for the second.

Going from `CN(C)CCn1c(=N)sc2ccccc21` to `CN(C)CCn1c(=N)sc2cc(OC(F)(F)F)ccc21`, the ED50 falls from over 10 mg/kg to 2.3 mg/kg.

`Nc1nc2c(OC(F)(F)F)cccc2s1` and `Nc1nc2cccc(OC(F)(F)F)c2s1` cannot be ordered by ED50: over 10 mg/kg for the first, over 10 mg/kg for the second.

Going from `N=c1sc2cc(OC(F)(F)F)ccc2n1CC(=O)O` to `N=c1sc2cc(OC(F)(F)F)ccc2n1CC(N)=O`, the ED50 falls from over 10 mg/kg to 7 mg/kg.

First: CC(C)(C)Oc1ccc2nc(N)sc2c1
Second: CC(C)(C)c1ccc2nc(N)sc2c1
The ED50 of the first is higher: over 10 mg/kg for the first, 4 mg/kg for the second.

Going from `N=c1sc2cc(OC(F)(F)F)ccc2n1CCS(N)(=O)=O` to `CNS(=O)(=O)CCn1c(=N)sc2cc(OC(F)(F)F)ccc21`, the ED50 falls from 6 mg/kg to 4 mg/kg (1.5-fold).

`Nc1nc2ccc(OCC(F)(F)F)cc2s1` and `Nc1nc2ccc(OCC(F)(F)C(F)(F)F)cc2s1` are within 1.5-fold of each other in ED50: 6.5 mg/kg for the first, 7.5 mg/kg for the second.

`CCSCCn1c(=N)sc2cc(OC(F)(F)F)ccc21` and `CCCSCCn1c(=N)sc2cc(OC(F)(F)F)ccc21` are within 1.5-fold of each other in ED50: 2.2 mg/kg for the first, 2.4 mg/kg for the second.

Compared with `N=c1sc2cc(OC(F)(F)F)ccc2n1CCO`, `N=c1sc2cc(OC(F)(F)F)ccc2n1CCS` is 4-fold lower in ED50: 8 mg/kg for the first, 2 mg/kg for the second.

Going from `N=c1sc2cc(OC(F)(F)F)ccc2n1CC[S+]([O-])c1ccccc1` (configuration not stated) to `N=c1sc2cc(OC(F)(F)F)ccc2n1CCc1ccccc1`, the ED50 rises from 4.2 mg/kg to over 10 mg/kg.

`Nc1nc2ccc(OC(F)(F)C(F)(F)F)cc2s1` and `Nc1nc2ccc(OC(F)(F)F)cc2s1` [RILUZOLE] are within 1.5-fold of each other in ED50: 2.5 mg/kg for the first, 3.2 mg/kg for the second.

`CC[S+]([O-])CCn1c(=N)sc2cc(C(F)(F)F)ccc21` (configuration not stated) and `CC[S+]([O-])CCn1c(=N)sc2cc(OC(F)(F)F)ccc21` (configuration not stated) are within 1.5-fold of each other in ED50: 1.7 mg/kg for the first, 1.2 mg/kg for the second.

`Nc1nc2ccc(-c3ccccc3)cc2s1` and `Nc1nc2ccc(I)cc2s1` cannot be ordered by ED50: over 10 mg/kg for the first, over 10 mg/kg for the second.

`Nc1nc2ccc(C3CCCCC3)cc2s1` and `Nc1ccc2nc(N)sc2c1` cannot be ordered by ED50: over 10 mg/kg for the first, over 10 mg/kg for the second.

`N#CCn1c(=N)sc2cc(OC(F)(F)F)ccc21` and `C#CCn1c(=N)sc2cc(OC(F)(F)F)ccc21` are within 1.5-fold of each other in ED50: 3.5 mg/kg for the first, 4 mg/kg for the second.

First: N=c1sc2cc(OC(F)(F)F)ccc2n1CCN1CCCCC1
Second: CCCn1c(=N)sc2cc(OC(F)(F)F)ccc21
The ED50 of the first is 2.2-fold lower: 2 mg/kg for the first, 4.5 mg/kg for the second.

`Nc1nc2ccc(CC(F)(F)F)cc2s1` and `Nc1nc2ccc(SC(F)(F)F)cc2s1` are the same in ED50: 8 mg/kg for the first, 8 mg/kg for the second.

Compared with `CSCCCn1c(=N)sc2cc(OC(F)(F)F)ccc21`, `CSCCn1c(=N)sc2cc(OC(F)(F)F)ccc21` is 4.2-fold lower in ED50: 4.2 mg/kg for the first, 1 mg/kg for the second.

Compared with `CCN(CC)C(=O)Cn1c(=N)sc2cc(OC(F)(F)F)ccc21`, `COC(=O)Cn1c(=N)sc2cc(OC(F)(F)F)ccc21` is higher in ED50: 9 mg/kg for the first, over 10 mg/kg for the second.

First: CCOC(=O)c1ccc2nc(N)sc2c1
Second: CCc1ccc2nc(N)sc2c1
The ED50 of the first is higher: over 10 mg/kg for the first, 7 mg/kg for the second.

First: N=c1sc2cc(OC(F)(F)F)ccc2n1Cc1ccccc1
Second: N=c1sc2cc(OC(F)(F)F)ccc2n1CCSc1ccccc1
The ED50 of the first is higher: over 10 mg/kg for the first, 4.5 mg/kg for the second.

First: CSCn1c(=N)sc2cc(OC(F)(F)F)ccc21
Second: CCn1c(=N)sc2cc(OC(F)(F)F)ccc21
The ED50 of the first is 1.7-fold lower: 3 mg/kg for the first, 5 mg/kg for the second.

Compared with `C=CCn1c(=N)sc2cc(OC(F)(F)F)ccc21`, `C[S+]([O-])Cn1c(=N)sc2cc(OC(F)(F)F)ccc21` (configuration not stated) is 3-fold lower in ED50: 7 mg/kg for the first, 2.3 mg/kg for the second.

`CCC(C)(C)c1ccc2nc(N)sc2c1` and `CC(C)(C)Cc1ccc2nc(N)sc2c1` cannot be ordered by ED50: over 10 mg/kg for the first, over 10 mg/kg for the second.

Compared with `CCSCCn1/c(=N/OC)sc2cc(OC(F)(F)F)ccc21`, `CCSCCn1/c(=N/C)sc2cc(OC(F)(F)F)ccc21` is lower in ED50: over 10 mg/kg for the first, 3.7 mg/kg for the second.

`CCS(=O)(=O)CCn1c(=N)sc2cc(OC(F)(F)C(F)(F)F)ccc21` and `CCS(=O)(=O)CCn1c(=N)sc2cc(C(F)(F)C(F)(F)F)ccc21` are within 1.5-fold of each other in ED50: 2.6 mg/kg for the first, 2.1 mg/kg for the second.

Compared with `Nc1nc2cc(OC(F)(F)F)ccc2s1`, `Nc1nc2ccc(OC(F)(F)C(F)F)cc2s1` is lower in ED50: over 10 mg/kg for the first, 8.5 mg/kg for the second.

Going from `C[C@]12N[C@H](Cc3ccccc31)c1ccccc12` (racemic) [DIZOCILPINE] to `COc1ccc2nc(N)sc2c1`, the ED50 rises from 2.2 mg/kg to over 10 mg/kg.

Going from `Nc1nc2ccc(OC(F)F)cc2s1` to `N#Cc1ccc2nc(N)sc2c1`, the ED50 rises from 7.5 mg/kg to over 10 mg/kg.

First: CNCCn1c(=N)sc2cc(OC(F)(F)F)ccc21
Second: CCCCn1c(=N)sc2cc(OC(F)(F)F)ccc21
The ED50 of the first is higher: over 10 mg/kg for the first, 10 mg/kg for the second.

`Nc1nc2ccc(C(=O)C(F)(F)F)cc2s1` and `Nc1nc2ccc([N+](=O)[O-])cc2s1` cannot be ordered by ED50: over 10 mg/kg for the first, over 10 mg/kg for the second.

Compared with `Cn1c(=N)sc2cc(OC(F)(F)F)ccc21`, `C[S+]([O-])CCn1c(=N)sc2cc(OC(F)(F)F)ccc21` (configuration not stated) is 4.5-fold lower in ED50: 5 mg/kg for the first, 1.1 mg/kg for the second.

Compared with `CCCCc1ccc2c(c1)sc(=N)n2CC[S+]([O-])CC` (configuration not stated), `C[S+]([O-])CCCn1c(=N)sc2cc(OC(F)(F)F)ccc21` (configuration not stated) is lower in ED50: over 10 mg/kg for the first, 2.3 mg/kg for the second.

Compared with `CN(C)S(=O)(=O)CCn1c(=N)sc2cc(OC(F)(F)F)ccc21`, `CS(=O)(=O)CCCn1c(=N)sc2cc(OC(F)(F)F)ccc21` is lower in ED50: over 10 mg/kg for the first, 5 mg/kg for the second.

First: CCCCCCCc1ccc2nc(N)sc2c1
Second: CCCCCCc1ccc2nc(N)sc2c1
The ED50 of the first is higher: over 10 mg/kg for the first, 7 mg/kg for the second.

`C[Si](C)(C)c1ccc2nc(N)sc2c1` and `CCCc1ccc2nc(N)sc2c1` are within 1.5-fold of each other in ED50: 5 mg/kg for the first, 6 mg/kg for the second.

Going from `CCCCCc1ccc2nc(N)sc2c1` to `CCCCc1ccc2nc(N)sc2c1`, the ED50 falls from 7.5 mg/kg to 4 mg/kg (1.9-fold).

First: CN(C)CCCn1c(=N)sc2cc(OC(F)(F)F)ccc21
Second: CSCCn1c(=O)sc2cc(OC(F)(F)F)ccc21
The ED50 of the first is lower: 9 mg/kg for the first, over 10 mg/kg for the second.

`CCSCCn1/c(=N/O)sc2cc(OC(F)(F)F)ccc21` and `CS(=O)(=O)c1ccc2nc(N)sc2c1` cannot be ordered by ED50: over 10 mg/kg for the first, over 10 mg/kg for the second.

Reference: ChEMBL document CHEMBL1132316 (J Med Chem, 1999)
